Five molecules from PubChem BioAssay (NCI) can be followed below.

Values joined by “and” are separate entries in the source; they are usually repeats but may differ in a detail not shown here. Identical values can stand only once.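 Cells were grown in 96-well plates and exposed to each compound for 48 hours at five concentrations; endpoints were interpolated linearly between bracketing concentrations, or set to the highest concentration if not reached. The concentration for 50% growth inhibition is given as GI50. Definition used: TGI = concentration required for complete inhibition of growth.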

Common to all, as to test: NCI tumour cell line growth inhibition, 48 h
Assay [1] has as its system SK-MEL-28 melanoma.
Assay [2] has as its system OVCAR-4 ovarian.
For assay [3], the system named is ACHN renal.
Assay [4] deals with MOLT-4 leukemia.
Assay [5] deals with HT29 colon.
For assay [6], the system named is MDA-MB-435.
The test system of assay [7] is NCI-H226 lung.
Assay [8] concerns HCT-15 colon.
For assay [9], the system named is HOP-62 NSCLC.
For assay [10], the system named is M14 melanoma.

For `CCOC(=O)c1c[nH]c2c(OCc3ccccc3)c3ccccc3c(O)c2c1=O`, the GI50 in [1] is 25.8 µM; in [2], 54.3 µM; in assay [3], 4.97 µM; in assay [4], 6.24 µM; in assay [5] it was 22.2 µM; in assay [6], 6.44 µM. Also, the GI50 in assay [7] is 4.28 µM; in assay [8], 11.1 µM; in assay [9] it was 14.4 µM; in assay [10] it was 11.3 µM. Besides, the TGI in assay [1] is greater than 100 µM; in assay [2], greater than 100 µM; in assay [3], 33.4 µM; in [4], greater than 100 µM; in assay [5], greater than 100 µM; in assay [6], 15.6 µM. Also, the TGI in assay [7] is 20.8 µM; in assay [8] it was greater than 100 µM; in assay [9], 42.9 µM; in [10] it was greater than 59.4 µM.

As for `O=C(CCc1nnc(-c2c(Cl)cccc2Cl)o1)c1nc2ccccc2[nH]1`, the GI50 in assay [1] is 12.7 µM; in assay [2], 5.93 µM; in [3], 11.9 µM; in assay [4] it was 4.07 µM; in [5], 3.77 µM; in [6] it was 2 µM. Besides, the GI50 is 6.66 µM in [7], 5.13 µM in assay [8], 7.67 µM in assay [9] and 5.86 µM in assay [10]. Further, the TGI is 42.7 µM in [1]; greater than 100 µM in assay [2]; greater than 100 µM in [3]; 25.8 µM in assay [4]; 55.1 µM in assay [5]; 4.77 µM in assay [6]. Also, the TGI came out at 31.2 µM in [7], 48.6 µM in [8], 41.3 µM in assay [9] and 31.5 µM in [10].

With `CC1(C)CC(=O)C2=C(C1)NC(SSC1=C(C#N)C(c3ccc(Br)cc3)C3=C(CC(C)(C)CC3=O)N1)=C(C#N)C2c1ccc(Br)cc1` (centres undefined), the GI50 is 48.4 µg/mL in assay [1]; 34.4 µg/mL in [2]; greater than 150 µg/mL in assay [3]; 41.9 µg/mL in assay [4]; greater than 150 µg/mL in [5]; 90.8 µg/mL in assay [6]. The GI50 in assay [7] is greater than 150 µg/mL; in assay [8], 88.6 µg/mL; in assay [9] it was greater than 150 µg/mL; in assay [10], 51.4 µg/mL. Also, the TGI in assay [1] was > 100 µM and 131 µg/mL; in assay [2], > 100 µM and 84.8 µg/mL; in assay [3], > 100 µM and 150 µg/mL; in [4] it was > 100 µM and 150 µg/mL; in assay [5], > 100 µM and 150 µg/mL; in assay [6] it was > 100 µM and 150 µg/mL. For the same molecule, the TGI in [7] was > 100 µM and 150 µg/mL; in assay [8] it was > 100 µM and 150 µg/mL; in [9], > 100 µM and 150 µg/mL; in [10], > 100 µM and 150 µg/mL.

With `C=C1C(=O)O[C@H]2[C@H]1CC/C(COC(=O)/C=C\C(=O)NCc1ccc(Cn3c(=O)sn(-c4ccc(OC)cc4)c3=O)cc1)=C\CC[C@@]1(C)O[C@@H]21`, the GI50 in [1] is 0.825 µM; in assay [2], 0.706 µM; in assay [3], 0.46 µM; in [4] it was 0.584 µM; in assay [5] it was 0.395 µM; in assay [6] it was 0.642 µM. Besides, the GI50 in [7] was 1.28 µM; in [8] it was 0.443 µM; in assay [9], 2.76 µM; in assay [10], 0.603 µM. For the same molecule, the TGI in [1] was found to be 1.55 µM; in [2], 1.39 µM; in assay [3], 1.07 µM; in assay [4] it was 9.78 µM; in assay [5] it was 1.64 µM; in assay [6], 1.32 µM. The TGI in assay [7] turned out to be 5.51 µM; in assay [8], 1.56 µM; in [9] it was 10 µM; in [10] it was 1.36 µM.

As to `Cc1ccc(Cl)cc1Nc1nc(C(F)(F)F)ccc1C(=O)N/N=C/c1c(Cl)cccc1Cl`, the GI50 in assay [1] was 1.84 µM; in assay [2], 0.289 µM; in assay [3], 1.08 µM; in assay [4], 0.596 µM; in [5] it was 0.791 µM; in [6], 2.15 µM. In addition, the GI50 was 1.1 µM in assay [7], 0.41 µM in assay [8], 0.745 µM in assay [9] and 1 µM in assay [10]. Moreover, the TGI in [1] was 32.1 µM; in assay [3], 6.14 µM; in assay [4], 4.93 µM; in assay [5] it was greater than 100 µM; in assay [6], 11.6 µM; in assay [7], 4.53 µM. The figures for the TGI in [8], in assay [9] and in [10] were 12.8 µM, 2.29 µM and 5.67 µM, respectively.
